Test results from article doi:10.1101/2024.10.09.617372v4, “Cholesterol differentially modulates the activity of opioid and muscarinic receptors via a common binding site” (biorxiv, 2025).

Biological target: T1, M2 muscarinic receptor (M2) (Homo sapiens, UniProt P08172)
T1 construct: gene CHRM2; full-length human receptor, cDNA from Missouri S&T cDNA Resource Center, expressed in CHO cells; membranes
T1 sequence (P08172 1-466): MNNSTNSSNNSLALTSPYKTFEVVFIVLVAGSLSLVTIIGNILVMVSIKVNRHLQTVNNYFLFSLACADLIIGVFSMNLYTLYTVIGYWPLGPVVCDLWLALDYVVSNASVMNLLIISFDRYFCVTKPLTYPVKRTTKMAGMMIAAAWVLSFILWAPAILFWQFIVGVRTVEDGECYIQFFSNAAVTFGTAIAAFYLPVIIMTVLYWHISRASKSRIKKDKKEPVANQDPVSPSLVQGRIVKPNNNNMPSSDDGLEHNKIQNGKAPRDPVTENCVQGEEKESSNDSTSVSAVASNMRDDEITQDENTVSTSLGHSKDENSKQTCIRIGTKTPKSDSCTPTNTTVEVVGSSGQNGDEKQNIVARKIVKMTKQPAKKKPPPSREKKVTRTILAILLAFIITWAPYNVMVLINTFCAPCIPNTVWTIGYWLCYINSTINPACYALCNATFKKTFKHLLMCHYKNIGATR
Test: radioligand saturation binding, CHO membranes
Details: labelled compound; […] h, […] °C, pH […]

With `C[N+]1(C)[C@@H]2C[C@@H](OC(=O)[C@H](CO)c3ccccc3)C[C@H]1[C@@H]1O[C@@H]12` [[3H]N-methylscopolamine] the KD was “equilibrium dissociation constant KD, expressed in nM, of [^3H]NMS (muscarinic)”.
